Broadly, the IC50 is the concentration that gives 50% inhibition.

In the experiment the target is hNav1.7 (Homo sapiens (Human), UniProt Q15858). Nature of the experiment: Tritiated sulfonamide competitive binding to membranes from cells expressing hNav1.7 and the β1 subunit.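 Also: displacement of the tritiated ligand from recombinant cell membranes, read by liquid scintillation counting of filter-bound radioactivity, nonspecific binding defined with 1 µM unlabelled compound.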 The note with it: 100 pM [3H]compound, 18 h, room temperature; inactivated state of NaV1.7 membrane binding; read-out: NaV1.7 Ligand Binding Assay (IC50).
Sequence of hNav1.7 (Q15858 other isoform, or with tags, fused parts or gaps): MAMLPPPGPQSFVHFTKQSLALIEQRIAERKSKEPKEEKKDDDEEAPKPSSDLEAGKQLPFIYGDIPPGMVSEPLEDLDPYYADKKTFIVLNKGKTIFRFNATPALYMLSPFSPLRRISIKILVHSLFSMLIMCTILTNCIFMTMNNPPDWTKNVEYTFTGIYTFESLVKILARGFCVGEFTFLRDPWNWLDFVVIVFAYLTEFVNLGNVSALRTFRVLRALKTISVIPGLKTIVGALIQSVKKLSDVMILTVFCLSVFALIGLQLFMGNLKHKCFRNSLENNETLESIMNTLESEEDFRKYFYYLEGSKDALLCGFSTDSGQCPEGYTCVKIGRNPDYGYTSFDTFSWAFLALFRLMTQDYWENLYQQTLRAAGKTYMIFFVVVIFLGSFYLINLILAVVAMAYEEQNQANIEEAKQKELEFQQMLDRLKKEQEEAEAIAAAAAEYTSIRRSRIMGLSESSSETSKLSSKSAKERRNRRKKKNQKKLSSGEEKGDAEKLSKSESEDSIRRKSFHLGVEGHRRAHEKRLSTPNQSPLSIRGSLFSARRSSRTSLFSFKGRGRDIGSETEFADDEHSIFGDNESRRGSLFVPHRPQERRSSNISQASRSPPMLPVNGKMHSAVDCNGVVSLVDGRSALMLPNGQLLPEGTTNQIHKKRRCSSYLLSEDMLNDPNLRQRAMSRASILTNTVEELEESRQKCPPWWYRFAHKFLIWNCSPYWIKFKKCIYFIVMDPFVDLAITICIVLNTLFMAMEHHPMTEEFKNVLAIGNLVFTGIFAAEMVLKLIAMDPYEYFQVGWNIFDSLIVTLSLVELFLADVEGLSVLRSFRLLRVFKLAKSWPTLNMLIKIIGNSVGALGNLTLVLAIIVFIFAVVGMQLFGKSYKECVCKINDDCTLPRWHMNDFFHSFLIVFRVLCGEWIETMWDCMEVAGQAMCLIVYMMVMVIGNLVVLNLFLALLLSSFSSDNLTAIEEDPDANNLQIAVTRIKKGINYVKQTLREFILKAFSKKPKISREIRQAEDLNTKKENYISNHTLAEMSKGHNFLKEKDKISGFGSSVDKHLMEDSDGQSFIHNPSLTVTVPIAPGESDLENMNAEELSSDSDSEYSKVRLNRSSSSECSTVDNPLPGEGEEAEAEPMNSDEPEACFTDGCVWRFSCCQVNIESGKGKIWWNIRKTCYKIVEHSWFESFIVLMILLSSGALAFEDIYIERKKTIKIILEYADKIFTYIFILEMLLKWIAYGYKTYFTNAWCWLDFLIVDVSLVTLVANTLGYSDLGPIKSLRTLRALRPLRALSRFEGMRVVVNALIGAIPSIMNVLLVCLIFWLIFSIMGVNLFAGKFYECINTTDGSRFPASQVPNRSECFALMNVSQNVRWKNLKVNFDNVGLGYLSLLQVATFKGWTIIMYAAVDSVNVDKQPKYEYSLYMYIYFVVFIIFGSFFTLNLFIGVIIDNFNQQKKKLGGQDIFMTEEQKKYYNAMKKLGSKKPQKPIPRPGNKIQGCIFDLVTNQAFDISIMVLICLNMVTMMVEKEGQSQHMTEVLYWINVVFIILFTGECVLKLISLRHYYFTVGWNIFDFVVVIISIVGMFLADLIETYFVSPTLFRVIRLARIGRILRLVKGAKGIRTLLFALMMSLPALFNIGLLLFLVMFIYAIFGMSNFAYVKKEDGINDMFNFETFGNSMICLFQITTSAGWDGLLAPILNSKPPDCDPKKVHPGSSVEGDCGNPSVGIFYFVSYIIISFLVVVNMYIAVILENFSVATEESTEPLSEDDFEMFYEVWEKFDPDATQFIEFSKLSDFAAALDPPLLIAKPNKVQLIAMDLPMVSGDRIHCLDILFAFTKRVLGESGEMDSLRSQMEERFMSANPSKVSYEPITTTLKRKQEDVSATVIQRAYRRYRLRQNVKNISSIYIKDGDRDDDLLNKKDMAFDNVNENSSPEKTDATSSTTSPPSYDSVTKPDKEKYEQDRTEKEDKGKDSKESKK
Sequence of hNav1.7 (Q07699 19-218 partner): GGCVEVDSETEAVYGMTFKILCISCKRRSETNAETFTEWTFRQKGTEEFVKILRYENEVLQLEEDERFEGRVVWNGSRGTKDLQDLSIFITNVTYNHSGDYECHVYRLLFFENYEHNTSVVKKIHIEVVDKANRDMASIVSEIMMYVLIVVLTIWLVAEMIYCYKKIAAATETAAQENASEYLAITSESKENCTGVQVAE

On to `CS(=O)(=O)Nc1nnc2cc(OC[C@@H]3C[C@H]4CC[C@@H](C3)N4C(c3ccccc3)c3ccccc3)c(C3CC3)cn12` [Example 123, N-(7-(((1R,3S,5S)-8-benzhydryl-8-azabicyclo[3.2.1]octan-3-yl)methoxy)-6-cyclopropyl-[1,2,4]triazolo[4,3-a]pyridin-3-yl)methanesulfonamide], for which the IC50 came to 17 nM.

Regarding `CS(=O)(=O)Nc1nnc2cc(OCC3(C(F)(F)F)CCCC3)c(C3CC3)cn12` [Example 37], the IC50 is 45.2 nM.

Take `CC1(COc2cc3nnc(NS(=O)(=O)C4CC4)n3cc2C2CC2)CCN(Cc2cc(Cl)cc(Cl)c2)CC1` [Example 111, N-(6-cyclopropyl-7-((1-(3,5-dichlorobenzyl)-4-methylpiperidin-4-yl)methoxy)-[1,2,4]triazolo[4,3-a]pyridin-3-yl)cyclopropanesulfonamide]: the IC50 stood at 8 nM.

Take `O=S(=O)(Nc1nnc2cc(OC3C4CC5CC(C4)CC3C5)c(C3CC3)cn12)C1CC1` (centres unmarked) [Example 24, N-(7-(adamantan-2-yloxy)-6-cyclopropyl-[1,2,4]triazolo-[4,3-a]pyridin-3-yl)cyclopropanesulfonamide]: the IC50 amounted to 65.8 nM.

As for `CS(=O)(=O)Nc1nnc2cc(O[C@@H]3CCCN(Cc4ccc(F)cc4Cl)C3)c(C3CC3)cn12` [Example 112, (R)—N-(7-((1-(2-chloro-4-fluorobenzyl)piperidin-3-yl)oxy)-6-cyclopropyl-[1,2,4]triazolo[4,3-a]pyridin-3-yl)methanesulfonamide], the IC50 turned out to be 130 nM.

As for `O=S(=O)(Nc1nnc2cc(COc3ccc(Cl)c(Cl)c3)c(C3CC3)cn12)N1CCC1` [Example 41, N-(6-cyclopropyl-7-((3,4-dichlorophenoxy)methyl)-[1,2,4]triazolo[4,3-a]pyridin-3-yl)azetidine-1-sulfonamide], the IC50 amounted to 18.9 nM.

As for `CS(=O)(=O)Nc1nnc2cc(OC[C@H]3CC[C@H](C(F)(F)F)CC3)c(C3CC3)cn12` [Example 13, N-(6-cyclopropyl-7-(((trans)-4-(trifluoromethyl)cyclohexyl)-methoxy)-[1,2,4]triazolo[4,3-a]pyridin-3-yl)methanesulfonamide], the IC50 is 22.6 nM.

For `Cc1cc(Cl)cc(OCc2cc3nnc(NS(C)(=O)=O)n3cc2C2CC2)c1` [Example 47, N-(7-((3-chloro-5-methylphenoxy)methyl)-6-cyclopropyl-[1,2,4]triazolo[4,3-a]pyridin-3-yl)methanesulfonamide], the IC50 turned out to be 7.29 nM.

Regarding `CCS(=O)(=O)Nc1nnc2cc(OCC34CC5CC(CC(C5)C3)C4)c(C3CC3)cn12` [Example 72, N-(7-((3r,5r,7r)-adamantan-1-ylmethoxy)-6-cyclopropyl-[1,2,4]triazolo[4,3-a]pyridin-3-yl)ethanesulfonamide], the IC50 came to 4 nM.

As to `CC1(S(=O)(=O)Nc2nnc3cc(OCC45CC6CC(CC(C6)C4)C5)c(C4CC4)cn23)CC1` [Example 74, N-(7-((3r,5r,7r)-adamantan-1-ylmethoxy)-6-cyclopropyl-[1,2,4]triazolo[4,3-a]pyridin-3-yl)-1-methylcyclopropane-1-sulfonamide], the IC50 came to 7 nM.

`CC1(COc2cc3nnc(NS(C)(=O)=O)n3cc2C2CC2)CCN(Cc2cc(Cl)cc(Cl)c2)CC1` [Example 110, N-(6-cyclopropyl-7-((1-(3,5-dichlorobenzyl)-4-methylpiperidin-4-yl)methoxy)-[1,2,4]triazolopyridin-3-yl)methanesulfonamide]: the IC50 worked out at 12 nM.

As for `C=Cc1cn2c(NS(C)(=O)=O)nnc2cc1OCC1(C)CCCCC1` [Example 62, N-(7-((1-methylcyclohexyl)methoxy)-6-vinyl-[1,2,4]triazolo-[4,3-a]pyridin-3-yl)methanesulfonamide], the IC50 amounted to 65 nM.

Consider `O=S(=O)(Nc1nnc2cc(COc3cc(Cl)cc(OC(F)(F)F)c3)c(C3CC3)cn12)C1CC1` [Example 97, N-(7-((3-chloro-5-(trifluoromethoxy)phenoxy)methyl)-6-cyclopropyl-[1,2,4]triazolo[4,3-a]pyridin-3-yl)cyclopropanesulfonamide], for which the IC50 turned out to be 3 nM.

As to `CS(=O)(=O)Nc1nnc2cc(OC[C@H]3CC[C@H](C)CC3)c(Br)cn12` [Example 32], the IC50 is 86.6 nM.

In the case of `CC1(COc2cc3nnc(NS(C)(=O)=O)n3cc2C2CC2)CCCCC1` [Example 14, N-(6-cyclopropyl-7-((1-methylcyclohexyl)methoxy)-[1,2,4]-triazolo[4,3-a]pyridin-3-yl)methanesulfonamide], the IC50 worked out at 14 nM.

On to `O=S(=O)(Nc1nnc2cc(OCCC34CC5CC(CC(C5)C3)C4)c(C3CC3)cn12)C1CC1` [Example 77, N-(7-(2-((3r,5r,7r)-adamantan-1-yl)ethoxy)-6-cyclopropyl-[1,2,4]triazolo[4,3-a]pyridin-3-yl)cyclopropanesulfonamide], for which the IC50 was determined as 7 nM.

For the compound `O=S(=O)(Nc1nnc2cc(COc3ccc(Cl)c(Cl)c3)c(C3CC3)cn12)C1CC1` [Example 39], the IC50 turned out to be 6.83 nM.

For `CC1(COc2cc3nnc(NS(C)(=O)=O)n3cc2C2CC2)CCN(C(c2ccccc2)c2ccccc2)CC1` [Example 116, N-(7-((1-benzhydryl-4-methylpiperidin-4-yl)methoxy)-6-cyclopropyl-[1,2,4]triazolo[4,3-a]pyridin-3-yl)methanesulfonamide], the IC50 is 16 nM.

For `CC1(S(=O)(=O)Nc2nnc3cc(COc4cc(Cl)cc(OC(F)(F)F)c4)c(C4CC4)cn23)CC1` [Example 49, N-(7-((3-chloro-5-(trifluoromethoxy)phenoxy)methyl)-6-cyclopropyl-[1,2,4]triazolo[4,3-a]pyridin-3-yl)-1-methylcyclopropane-1-sulfonamide], the IC50 is 3.94 nM.

On to `CCS(=O)(=O)Nc1nnc2cc(OCC34CC5CC(CC(C5)C3)C4)c(C3CC3)cn12` [Example 17, N-(7-((3r,5r,7r)-adamantan-1-ylmethoxy)-6-cyclopropyl-[1,2,4]triazolo[4,3-a]pyridin-3-yl)ethanesulfonamide], for which the IC50 was found to be 4.26 nM.

In the case of `CS(=O)(=O)Nc1nnc2cc(OC[C@H]3CC[C@H](C)CC3)c(C3CC3)cn12` [Example 88], the IC50 was 18 nM.

Consider `CC1(C)[C@H]2CC[C@H](COc3cc4nnc(NS(C)(=O)=O)n4cc3C3CC3)[C@@H]1C2` [Example 28, N-(6-cyclopropyl-7-(((1S,2S,5S)-6,6-dimethylbicyclo[3.1.1]heptan-2-yl)methoxy)-[1,2,4]triazolo[4,3-a]pyridin-3-yl)methanesulfonamide], for which the IC50 is 2.6 nM.

As for `O=S(=O)(Nc1nnc2cc(COc3ccc(Cl)c(Cl)c3)c(C3CC3)cn12)N1CCC1` [Example 96, N-(6-cyclopropyl-7-((3,4-dichlorophenoxy)methyl)-[1,2,4]triazolo[4,3-a]pyridin-3-yl)azetidine-1-sulfonamide], the IC50 amounted to 19 nM.

In the case of `CC1(S(=O)(=O)Nc2nnc3cc(OCC45CC6CC(CC(C6)C4)C5)c(C4CC4)cn23)CC1` [Example 19, N-(7-((3r,5r,7r)-adamantan-1-ylmethoxy)-6-cyclopropyl-[1,2,4]triazolo[4,3-a]pyridin-3-yl)-1-methylcyclopropane-1-sulfonamide], the IC50 is 7.19 nM.

On to `CS(=O)(=O)Nc1nnc2cc(OCC3CC4C5CCC(C5)C4C3)c(C3CC3)cn12` (centres unmarked) [Example 25], for which the IC50 was determined as 5.24 nM.

For the compound `CC1(S(=O)(=O)Nc2nnc3cc(COc4cc(Cl)cc(OC(F)(F)F)c4)c(C4CC4)cn23)CC1` [Example 104, N-(7-((3-chloro-5-(trifluoromethoxy)phenoxy)methyl)-6-cyclopropyl-[1,2,4]triazolo[4,3-a]pyridin-3-yl)-1-methylcyclopropane-1-sulfonamide], the IC50 turned out to be 4 nM.

Consider `CC1(C)[C@H]2CC[C@H](COc3cc4nnc(NS(=O)(=O)N5CCC5)n4cc3C3CC3)[C@@H]1C2` [Example 85, N-(6-cyclopropyl-7-(((1S,2S,5S)-6,6dimethylbicyclo [3.1.1]heptan-2-yl)methoxy)-[1,2,4]triazolopyridin-3-yl)azetidine-1-sulfonamide], for which the IC50 was 7 nM.

`O=S(=O)(Nc1nnc2cc(OC3CCC4(CCCCC4)CC3)c(C3CC3)cn12)C1CC1` [Example 90, N-(6-cyclopropyl-7-(spiro[5.5]undecan-3-yloxy)-[1,2,4]triazolo[4,3-a]pyridin-3-yl)cyclopropanesulfonamide]: the IC50 stood at 51 nM.

On to `CS(=O)(=O)Nc1nnc2cc(OCCC34CC5CC(CC(C5)C3)C4)c(C3CC3)cn12` [Example 21], for which the IC50 came out at 8.51 nM.

As for `C=C(C)c1cn2c(NS(C)(=O)=O)nnc2cc1OCC12CC3CC(CC(C3)C1)C2` [Example 8, N-(7-(adamantan-1-ylmethoxy)-6-(prop-1-en-2-yl)-[1,2,4]-triazolo[4,3-a]pyridin-3-yl)methanesulfonamide], the IC50 came out at 51.2 nM.

`O=S(=O)(Nc1nnc2cc(OCC3CCC4(CC3)CC4)c(C3CC3)cn12)C1CC1` [Example 16, N-(6-cyclopropyl-7-(spiro[2.5]octan-6-ylmethoxy)-[1,2,4]triazolo[4,3-a]pyridin-3-yl)cyclopropanesulfonamide]: the IC50 is 21.7 nM.

Turning to `CCc1cn2c(NS(=O)(=O)N3CC(F)C3)nnc2cc1OCC12CC3CC(CC(C3)C1)C2` [Example 15, N-(7-((3r,5r,7r)-adamantan-1-ylmethoxy)-6-ethyl-[1,2,4]triazolo[4,3-a]pyridin-3-yl)-3-fluoroazetidine-1-sulfonamide], the IC50 stood at 138 nM.

Consider `CC1(S(=O)(=O)Nc2nnc3cc(COc4cc(Cl)cc(Cl)c4)c(C4CC4)cn23)CC1` [Example 105, N-(6-cyclopropyl-7-((3,5-dichlorophenoxy)methyl)-[1,2,4]-triazolo[4,3-a]pyridin-3-yl)-1-methylcyclopropane-1-sulfonamide], for which the IC50 amounted to 5 nM.

With `CS(=O)(=O)Nc1nnc2cc(OC[C@H]3CC[C@H](C)CC3)c(Br)cn12` [Example 87], the IC50 was found to be 87 nM.

As to `C=Cc1cn2c(NS(C)(=O)=O)nnc2cc1OCC12CC3CC(CC(C3)C1)C2` [Example 128, N-(7-(adamantan-1-ylmethoxy)-6-vinyl-[1,2,4]triazolo[4,3-a]-pyridin-3-yl)methanesulfonamide], the IC50 came out at 45 nM.
